Experimental data as given in patent publication US9822099B2, “Triazole derivatives” (priority 2013, dated 2017).
Read-outs that look alike come from different tables or passages of the source. Marks after values point to notes of the source that are not given here.

Tests used:
[1] = tested on: Septoria tritici; test: Example D: in vivo preventive test on Septoria tritici (leaf spot on wheat); conditions: wheat plants, preventive spray, evaluated 24 days after inoculation
Description: (§1) The young plants of wheat are treated by spraying the active ingredient prepared as described above. Control plants are treated only with an aqueous solution of acetone/Dimethyl sulfoxide/Tween®. After 24 hours, the plants are contaminated by spraying the leaves with an aqueous suspension of Septoria tritici spores.

[2] = tested on: Puccinia recondita; test: Example B: in vivo preventive test on Puccinia recondita (brown rust on wheat); conditions: wheat plants, preventive spray, evaluated 11 days after inoculation
Description: as §1, with “Puccinia recondita” for “Septoria tritici”

[3] = tested on: Botrytis cinerea; test: Example A: in vivo preventive test on Botrytis cinerea (grey mould); conditions: gherkin plants, preventive spray, evaluated 4 to 5 days after inoculation
Description: as §1, with “gherkin” for “wheat”, “Botrytis cinerea” for “Septoria tritici”

[4] = tested on: Sphaerotheca fuliginea; test: Example E: in vivo preventive test on Sphaerotheca fuliginea (powdery mildew on cucurbits); conditions: gherkin plants, preventive spray, evaluated 15 days after inoculation
Description: as §1, with “gherkin” for “wheat”, “Sphaerotheca fuliginea” for “Septoria tritici”

[5] = tested on: Pyrenophora teres; test: Example C: in vivo preventive test on Pyrenophora teres (net blotch on barley); conditions: barley plants, preventive spray, evaluated 14 days after inoculation
Description: as §1, with “barley” for “wheat”, “Pyrenophora teres” for “Septoria tritici”

[6] = tested on: Uromyces appendiculatus; test: Example F: in vivo preventive test on Uromyces appendiculatus (bean rust); conditions: bean plants, preventive spray, evaluated 11 days after inoculation
Description: as §1, with “bean” for “wheat”, “Uromyces appendiculatus” for “Septoria tritici”

[7] = tested on: Fusarium nivale (var. majus); test: Example J: Fusarium nivale (var. majus)-test (wheat)/preventive; type: in vivo; conditions: 500 ppm of active ingredient, preventive, evaluated 5 days after inoculation
Description: Solvent: 49 parts by weight of N,N-dimethylacetamide
Emulsifier: 1 part by weight of alkylaryl polyglycol ether
To produce a suitable preparation of active compound, 1 part by weight of active compound or active compound combination is mixed with the stated amounts of solvent and emulsifier, and the concentrate is diluted with water to the desired concentration.
To test for preventive activity, young plants are sprayed with the preparation of active compound or active compound combination at the stated rate of application.
After the spray coating has been dried, the plants are slightly injured by using a sandblast and afterwards they are sprayed with a conidia suspension of Fusarium nivale (var. majus).
The plants are placed in the greenhouse under a translucent incubation cabinet at a temperature of approximately 10° C. and a relative atmospheric humidity of approximately 100%.
The test is evaluated 5 days after the inoculation. 0% means an efficacy which corresponds to that of the untreated control, while an efficacy of 100% means that no disease is observed.

[8] = tested on: Blumeria graminis f. sp. hordei; test: Example G: Blumeria test (barley)/preventive; type: in vivo; conditions: 500 ppm of active ingredient, preventive, evaluated 7 days after inoculation
Description: Solvent: 49 parts by weight of N,N-dimethylacetamide Emulsifier: 1 part by weight of alkylaryl polyglycol ether To produce a suitable preparation of active compound, 1 part by weight of active compound or active compound combination is mixed with the stated amounts of solvent and emulsifier, and the concentrate is diluted with water to the desired concentration. To test for preventive activity, young plants are sprayed with the preparation of active compound or active compound combination at the stated rate of application. After the spray coating has been dried, the plants are dusted with spores of Blumeria graminis f. sp. hordei.

Row | SMILES | LogP (pH 2.7) | Eff. % ([1]; 500 ppm of active ingredient) [%] | Eff. % ([2]; 500 ppm of active ingredient) [%] | Eff. % ([4]; 500 ppm of active ingredient) [%] | Eff. % ([6]; 500 ppm of active ingredient) [%] | further results
1 | OC(Cc1ccc(Cl)cn1)(Cn1cncn1)C1(Cl)CC1 (racemic) [Example I-67] | 2.23^[a] | 100 | 98 | 98 | 100 | Eff. % ([3]; 500 ppm of active ingredient): 99%; Eff. % ([5]; 500 ppm of active ingredient): 86%
2 | OC(Cc1cc(Oc2ccc(Cl)cc2)nnc1Cl)(Cn1cncn1)C1(Cl)CC1 (stereo not shown) [Example I-55] | 3.08^[a] | 100 | 79 | 100 | 98 | 
3 | COc1nccnc1CC(O)(Cn1cncn1)C1(Cl)CC1 (racemic) [Example I-72] | 1.88^[a] | 80 |  | 98 | 100 | 
4 | OC(Cc1cc(Cl)cnc1Cl)(Cn1cncn1)C1(Cl)CC1 (racemic) [Example I-83] | 2.53^[a] | 100 | 100 | 100 | 100 | Eff. % ([3]; 500 ppm of active ingredient): 100%; Eff. % ([5]; 500 ppm of active ingredient): 88%
5 | CC(C)(Oc1ccc(F)cc1)C(O)(Cc1ccncc1Cl)Cn1cncn1 (racemic) [Example I-91] | 2.48^[a] | 100 | 89 | 98 | 97 | LogP (pH 7.8): 2.60^[b];; Eff. % ([3]; 500 ppm of active ingredient): 95%
6 | OC(Cc1cccc(Cl)c1)(Cc1ccnc(Cl)c1F)Cn1cncn1 (racemic) [Example I-88] | 2.02^[a] | 100 | 89 | 98 |  | 
7 | OC(Cc1ccc2ccccc2n1)(Cn1cncn1)C1(Cl)CC1 (stereo not shown) [Example I-1] | 1.64^[a] |  |  |  |  | Eff. % ([5]; 100 ppm of active ingredient): 83%; Eff. % ([6]; 100 ppm of active ingredient): 80%
8 | Cc1cccc2cc(CC(O)(Cn3cncn3)C3(Cl)CC3)c(Cl)nc12 (racemic) [Example I-84] | 3.53^[a] |  | 88 |  | 100 | Eff. % ([1]; 100 ppm of active ingredient): 81%
9 | CC(C)(CCl)C(O)(Cc1ccncc1Cl)Cn1cncn1 (racemic) [Example I-90] | 1.76^[a] | 78 |  | 100 |  | LogP (pH 7.8): 1.96^[b];; Eff. % ([3]; 500 ppm of active ingredient): 100%
10 | OC(Cc1ccncc1F)(Cn1cncn1)c1cccnc1Cl (stereo not shown) [Example I-23] | 0.91^[a] |  |  |  |  | Eff. % ([4]; 100 ppm of active ingredient): 88%; Eff. % ([6]; 100 ppm of active ingredient): 92%
11 | OC(Cc1cc(Cl)ncc1F)(Cn1cncn1)C1(F)CC1 (stereo not shown) [Example I-41] | 1.66^[a] |  |  |  |  | Eff. % ([4]; 100 ppm of active ingredient): 100%; Eff. % ([6]; 100 ppm of active ingredient): 94%
12 | OC(Cc1ccnc(Cl)c1F)(Cn1cncn1)C1(F)CC1 (racemic) [Example I-87] | 1.23^[a] | 83 | 89 | 72 | 78 | 
13 | OC(Cc1cncc(Oc2ccc(Cl)cc2)n1)(Cn1cncn1)C1(Cl)CC1 (stereo not shown) [Example I-56] | 2.88^[a] | 92 | 86 | 100 | 96 | Eff. % ([5]; 500 ppm of active ingredient): 88%
14 | OC(Cc1ncnc(Cl)c1Cl)(Cn1cncn1)C1(Cl)CC1 (stereo not shown) [Example I-57] | 2.28^[a] | 92 | 86 | 95 | 96 | Eff. % [7]: 71%; Eff. % ([5]; 500 ppm of active ingredient): 88%; Eff. % [8]: 100%
15 | OC(Cc1cc(Cl)cc(Cl)n1)(Cn1cncn1)C1(Cl)CC1 (stereo not shown) [Example I-17] | 2.76^[a] |  |  |  |  | Eff. % ([1]; 100 ppm of active ingredient): 97%; Eff. % ([4]; 100 ppm of active ingredient): 100%; Eff. % ([6]; 100 ppm of active ingredient): 94%
16 | OC(Cc1ccncc1Cl)(Cn1cncn1)c1ccc2oc3ccccc3c2c1 (racemic) [Example I-80] |  | 100 | 88 | 100 | 99 | LogP (method [a]: LC-MS at pH 2.7, 0.1% formic acid in water / acetonitrile gradient): 2.40^[a]
17 | OC(COc1ccc(F)cc1)(Cc1ccncc1Cl)Cn1cncn1 (racemic) [Example I-79] | 1.86^[a] | 100 | 98 | 100 | 100 | Eff. % ([3]; 500 ppm of active ingredient): 99%
18 | Cc1cccc(CC(O)(Cn2cncn2)C2(Cl)CC2)n1 (stereo not shown) [Example I-48] | 0.52^[a] |  |  | 83 | 81 | 
19 | CC(Oc1ccc(Cl)cc1)C(O)(Cc1cccnc1Cl)Cn1cncn1 (stereo not shown) [Example I-16] |  |  |  |  |  | Eff. % ([1]; 100 ppm of active ingredient): 98%; Eff. % ([2]; 100 ppm of active ingredient): 75%; Eff. % ([3]; 100 ppm of active ingredient): 87%; Eff. % ([4]; 100 ppm of active ingredient): 100%; Eff. % ([6]; 100 ppm of active ingredient): 91%

Further lines, with some results ahead:

Row | LogP (pH 2.7) | SMILES | Eff. % ([1]; 500 ppm of active ingredient) [%] | Eff. % ([2]; 500 ppm of active ingredient) [%] | Eff. % ([4]; 500 ppm of active ingredient) [%] | Eff. % ([6]; 500 ppm of active ingredient) [%] | further results
20 | 2.30^[a] | OC(Cc1cc(F)ncc1Cl)(Cn1cncn1)C1(Cl)CC1 (racemic) [Example I-89] | 100 | 100 | 100 | 100 | Eff. % ([3]; 500 ppm of active ingredient): 100%; Eff. % ([5]; 500 ppm of active ingredient): 100%
21 | 2.46^[a] | OC(Cc1ccccc1F)(Cc1cc(F)ncc1Cl)Cn1cncn1 (racemic) [Example I-64] | 97 | 83 | 100 | 94 | 
22 | 1.23^[a] | OC(Cc1ccncc1Cl)(Cn1cncn1)c1cccnc1Cl (stereo not shown) [Example I-14] |  |  |  |  | Eff. % ([4]; 100 ppm of active ingredient): 100%; Eff. % ([6]; 100 ppm of active ingredient): 87%
23 | 3.58^[a] | OC(Cc1cc(Cc2ccc(Cl)c(Cl)n2)cc(Cl)n1)(Cn1cncn1)C1(Cl)CC1 (stereo not shown) [Example I-32] |  |  |  |  | Eff. % ([2]; 100 ppm of active ingredient): 75%
24 | 2.29^[a] | OC(CCc1ccccc1Cl)(Cc1ccncc1Cl)Cn1cncn1 (racemic) [Example I-68] | 100 | 94 | 100 | 100 | Eff. % ([5]; 500 ppm of active ingredient): 71%
25 | 1.54^[a] | OC(Cc1ccnc(Cl)c1F)(Cn1cncn1)c1cccnc1Cl (stereo not shown) [Example I-59] | 100 | 98 | 100 | 100 | 
26 | 0.99^[a] | OC(Cc1ccncc1F)(Cn1cncn1)c1ccc(Cl)nc1 (stereo not shown) [Example I-24] |  |  |  |  | Eff. % ([4]; 100 ppm of active ingredient): 94%; Eff. % ([6]; 100 ppm of active ingredient): 92%
27 | 1.93^[a] | OC(Cc1ccc(F)cc1)(Cc1ccncc1Cl)Cn1cncn1 (racemic) [Example I-75] | 100 | 81 | 100 |  | 
28 | 2.28^[a] | OC(Cc1ncccc1Cl)(Cn1cncn1)C1(Cl)CC1 (stereo not shown) [Example I-2] | 100 | 94 | 95 | 100 | Eff. % ([3]; 500 ppm of active ingredient): 94%
29 | 1.89^[a] | CC(CF)(CF)C(O)(Cc1cc(Cl)ncc1F)Cn1cncn1 (stereo not shown) [Example I-44] |  |  |  |  | Eff. % ([4]; 100 ppm of active ingredient): 100%; Eff. % ([6]; 100 ppm of active ingredient): 94%
30 | 1.10^[a] | OC(Cc1ccncn1)(Cn1cncn1)C1(Cl)CC1 (stereo not shown) [Example I-50] | 100 | 94 | 100 | 100 | Eff. % ([3]; 500 ppm of active ingredient): 100%; Eff. % ([5]; 500 ppm of active ingredient): 79%
